Assay [1] has as its system SiHa, Caski, HeLa. The assay is described as follows: Cell viability (WST1 assay), cervical epithelial tumour cells. It counts as cell-based, human. Conditions: 50 μM, treated 3 times in 3 days. An excerpt: All cell lines were obtained from the American Type Culture Collection (Manassas, Va.) unless otherwise noted. SiHa (human cervical epithelial tumor line, HPV16-positive), CaSki (human cervical epithelial tumor line, HPV16-positive), HaCat (immortalized human skin epithelial cell line, HPV-negative), HeLa (human cervical epithelial tumor line, HPV18-positive), 444 (hybrid of HeLa and fibroblast, HPV18-positive) obtained from Eric Stanbridge (Universitv of California, Irvine), MCF7 (human mammary epithelial tumor cell line, HPV-negative), HT3 (human cervical epithelial tumor cell line, HPV-negative) was obtained from the German Cancer Research Institute/DKFZ-Heidelberg, and HepG2, (human liver epithelial tumor cell line, HPV-negative), were grown in Dulbecco's modified Eagle medium (DMEM) supplemented with 10% fetal calf serum, 100 U penicillin and 1000 U streptomycin. Cells were allowed to attach to the surface of microwell dishes overnight and subsequently, incubated with medium containing the zinc ejecting compounds at the concentrations (10–100 μM). Viability of the cells was scored by measuring the absorption of the tetrazolium salt WST1 (Roche Molecular Biochemicals, Mannheim, Germany) in an Elisa-plate reader (Tecan, Salzburg, Austria) at a wavelength of 450 nm and a reference wavelength of 630 nm. […]
On the technique in general: Tetrazolium dyes change colour on reduction, which living cells bring about.

Assay [2] concerns the target T1, E6 binding to E6BP and E6AP (Human papillomavirus type 16, UniProt P03126).
T1 construct: The open reading frame of HPV-16 E6, cloned into the Hind III and PstI site of the pSP64 plasmid; made in house; host or cells: TNT-SP6 coupled reticulocyte lysate (Promega) for E6; E. coli AB1899 for the GST fusions
The assay is described as follows: GST-pulldown experiment, in vitro translated E6 binding to GST-E6BP/GST-E6AP. Conditions: 35S-Cys in vitro translated E6. Also on record: species or system HPV-16. The procedure:
The open reading frame of HPV-16 E6, cloned into the Hind III and PstI site of the pSP64 plasmid (33), was in vitro translated with ^35S-cysteine by using the TNT-SP6 Coupled Reticulocyte Lysate System as recommend by the manufacturer (Promega). All washing and binding reactions were performed with the E6BP-binding buffer described (5) but without DTT (100 mM NaCl, 100 mM Tris-HCl pH8.0, 1% NP40, 0.1% nonfat dry milk and 1 mM PMSF. 40 μl of in vitro translated E6 plus 360 μl of E6BP-binding buffer were incubated for 2 hrs at room temperature with test compounds at difference concentrations from 0–1 mM (dissolved in DMSO at 1%), 5 mM EDTA, and H2O2 at 0.3% (85 mM). The sample was then passed over columns captaining glutathione-sepharose beads with bound GST, GST-E6, GST-E6BP or GST-E6AP proteins. The beads were heated to 95° C. in 50 μl Laemmli sample buffer (BIO-RAD) with 2.5% 2-mercaptoethanol, subjected to electrophoresis on a 15% polyacrylamide gel, fixed, stained, and autoradiographed. Interference with complex formation identified reactive compounds. Desitometric quantification was performed with a BIO-RAD/GS700 imaging desitometer.

Molecules are shown by their SMILES.

T1 sequence (P03126 whole entry, the tested form may be a part): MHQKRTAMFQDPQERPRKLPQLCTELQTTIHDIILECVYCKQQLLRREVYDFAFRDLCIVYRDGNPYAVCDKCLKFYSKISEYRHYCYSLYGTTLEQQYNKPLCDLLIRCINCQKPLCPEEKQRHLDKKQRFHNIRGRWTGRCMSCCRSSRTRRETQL

On to `C1CN(SSN2CCOCC2)CCO1` [Compound C16], for which, in assay [1], the “inhibition of cell viability” value is “substantial and specific inhibition of cell viability”. The “inhibition of E6 binding to E6BP and E6AP (GST-pulldown, FIG. 2)” value in assay [2] is on record as “inhibits E6 binding to both cellular proteins”.

For the origin of these results see patent publication US7019000B1, “Method of treating a disease condition caused or exacerbated by an HPV” (Institute of Molecular & Cell Biology, priority 1998, dated 2006).
